We go through 21 compounds from patent US12643885B2, “KRAS G12D protein inhibitors” (TAIHO PHARMACEUTICAL CO., LTD., priority 2020, dated 2026).

For the test, the target named is T1, KRAS G12D (Homo sapiens, UniProt P01116, G12D).
T1 construct: made in house; host or cells: Escherichia coli BL21 (DE3), pET28a
The experiment in a line: Inhibitory activity on KRAS G12D nucleotide (GDP-GTP) exchange reaction in vitro (SOS1-dependent, BODIPY FL GDP). Type of test: biochemical. The conditions noted are these: BODIPY FL GDP-bound recombinant KRAS G12D, 25° C. 1 hour preincubation, then SOS1 and GMPPNP 30 minutes at room temperature. An excerpt:
Test Example: Evaluation of Inhibitory Activity of Compounds of Examples 1-21 on KRAS G12D Nucleotide (GDP-GTP) Exchange Reaction In Vitro
Recombinant KRAS G12D (conjugated N-terminus His6-tag, TEV protease cleavage site and KRAS G12D residues 1-169 (SEQ ID NO: 1), prepared by the method described below) and cleaved recombinant SOS1 (residues 564-1049 (SEQ ID NO: 2), prepared by the method described below) proteins were expressed in E. coli and purified by affinity chromatography.
To prepare BODIPY FL (fluorescent dye) GDP-bound KRAS G12D protein, 50 μM KRAS G12D protein was incubated with 0.5 mM BODIPY FL GDP in a loading buffer (20 mM Tris-HCl (pH 7.5), 50 mM NaCl, 1 mM DTT and 2.5 mM EDTA) for 1 hour on ice. After the incubation, MgCl2 was added to a final concentration of 10 mM, followed by incubation at room temperature for 30 minutes.
The mixture was allowed to pass through a NAP-5 column to remove free nucleotides, and purified BODIPY FL GDP-bound KRAS G12D protein was used for compound evaluation.
For the measurement of the inhibitory activity of compounds on GDP-GTP exchange rate of recombinant KRAS G12D, BODIPY FL GDP-bound KRAS G12D protein was incubated with various concentrations of compounds of Formula (I), i.e., compounds of Examples 1-21, in a reaction buffer (20 mM Tris-HCl (pH 7.5), 100 mM NaCl, 1 mM MgCl2, 2 mM DTT, 0.1% Tween 20) at 25° C. for 1 hour.
After the incubation, recombinant SOS1 and GMPPNP (guanosine-5′-[(β,γ)-imido]triphosphate, tetralithium salt) (Jena Bioscience GmbH, Jena, Germany) were added and incubated at room temperature for 30 minutes to proceed SOS1-dependent GDP-GTP exchange reaction on KRAS G12D. Replacement of BODIPY FL GDP by GMPPNP was measured by calculating the ratio of fluorescence intensities of BODIPY FL before and after the exchange reaction.
Inhibition % was calculated by setting the fluorescence ratio from the reaction without test compound (DMSO control) and the fluorescence ratio from the reaction without SOS1 and GMPPNP as 0% and 100% inhibition, respectively. IC50 values were calculated from a dose titration curve using curve fitting by XLfit software (IDBS, Boston, Massachusetts, US).

T1 sequence (P01116 with tags, fused parts or gaps isoform P01116-2 G12D): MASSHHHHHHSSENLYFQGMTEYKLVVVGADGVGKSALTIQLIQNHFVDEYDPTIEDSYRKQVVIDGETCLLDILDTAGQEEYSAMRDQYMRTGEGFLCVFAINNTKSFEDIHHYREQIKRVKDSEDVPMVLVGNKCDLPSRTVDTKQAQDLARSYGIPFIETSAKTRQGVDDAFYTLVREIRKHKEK

In the case of `C[C@@H]1NC[C@H]1N(C)C(=O)c1c(Cl)nc(CNc2n[nH]c3cc(Cl)c(C(C)(C)C)cc23)n1C` (relative stereo) [Example 11], the IC50 (usually the midpoint of a concentration-inhibition curve) stood at 43.7 µM.
Take `C[C@H]1CNC[C@@H]1N(C)C(=O)c1c(Cl)nc(CNc2n[nH]c3cc(Cl)c(C(C)(C)C)cc23)n1C` (relative stereo) [Example 13, 2-(((5-(tert-butyl)-6-chloro-1H-indazol-3-yl)amino)methyl)-4-chloro-N,1-dimethyl-N-(trans-4-methylpyrrolidin-3-yl)-1H-imidazole-5-carboxamide]: the IC50 was found to be 17.1 µM.
As to `C[C@@H]1CNC[C@@H]1N(C)C(=O)c1c(Cl)nc(CNc2n[nH]c3cc(Cl)c(C(C)(C)C)cc23)n1C` (relative stereo) [Example 14, 2-(((5-(tert-butyl)-6-chloro-1H-indazol-3-yl)amino)methyl)-4-chloro-N,1-dimethyl-N-(cis-4-methylpyrrolidin-3-yl)-1H-imidazole-5-carboxamide], the IC50 came out at 43.1 µM.
With `CN(C(=O)c1c(Cl)nc(CNc2n[nH]c3cc(Cl)c(C(C)(C)C)cc23)n1C)C1CNC1` [Example 1, N-(azetidin-3-yl)-2-(((5-(tert-butyl)-6-chloro-1H-indazol-3-yl)amino)methyl)-4-chloro-N,1-dimethyl-1H-imidazole-5-carboxamide], the IC50 was 20.7 µM.
To `CN(C(=O)c1c(Cl)nc(CNc2n[nH]c3cc(Cl)c(C(C)(C)C)cc23)n1C)[C@H]1CCNC1` [Example 2, (S)-2-(((5-(tert-butyl)-6-chloro-1H-indazol-3-yl)amino)methyl)-4-chloro-N,1-dimethyl-N-(pyrrolidin-3-yl)-1H-imidazole-5-carboxamide] belongs 12.4 µM; to `CN(C(=O)c1c(Cl)nc(CNc2n[nH]c3cc(Cl)c(C(C)(C)C)cc23)n1C)[C@@H]1CCNC1` [Example 3, (R)-2-(((5-(tert-butyl)-6-chloro-1H-indazol-3-yl)amino)methyl)-4-chloro-N,1-dimethyl-N-(pyrrolidin-3-yl)-1H-imidazole-5-carboxamide], 18.7 µM.
Turning to `Cn1c(CNc2n[nH]c3cc(Cl)c(C(C)(C)C)cc23)nc(Cl)c1C(=O)N1CCCNCC1` [Example 4, (2-(((5-(tert-butyl)-6-chloro-1H-indazol-3-yl)amino)methyl)-4-chloro-1-methyl-1H-imidazol-5-yl)(1,4-diazepan-1-yl)methanone], the IC50 amounted to 38 µM.
On to `CC(C)N1CC[C@@H](n2c(CNc3n[nH]c4cc(Cl)c(C(C)(C)C)cc34)nc(Cl)c2C(=O)N(C)[C@@H]2CCNC2)C1` [Example 5, 2-(((5-(tert-butyl)-6-chloro-1H-indazol-3-yl)amino)methyl)-4-chloro-1-((R)-1-isopropylpyrrolidin-3-yl)-N-methyl-N-((R)-pyrrolidin-3-yl)-1H-imidazole-5-carboxamide], for which the IC50 worked out at 1.3 µM.
Turning to `CC(C)N1CC[C@@H](n2c(CNc3n[nH]c4cc(Cl)c(C(C)(C)C)cc34)nc(Cl)c2C(=O)N(C)C2CNC2)C1` [Example 6, (R)-N-(azetidin-3-yl)-2-(((5-(tert-butyl)-6-chloro-1H-indazol-3-yl)amino)methyl)-4-chloro-1-(1-isopropylpyrrolidin-3-yl)-N-methyl-1H-imidazole-5-carboxamide], the half-inhibitory concentration (IC50) was determined as 3.8 µM.
Next, `CN(CCN)C(=O)c1c(Cl)nc(CNc2n[nH]c3cc(Cl)c(C(C)(C)C)cc23)n1C` [Example 7, N-(2-aminoethyl)-2-(((5-(tert-butyl)-6-chloro-1H-indazol-3-yl)amino)methyl)-4-chloro-N,1-dimethyl-1H-imidazole-5-carboxamide]: 43.5 µM.
Take `CC(C)N1CC[C@@H](n2c(CNc3n[nH]c4cc(Cl)c(C(C)(C)C)cc34)nc(Cl)c2C(=O)N(C)CCN)C1` [Example 8, (R)-N-(2-aminoethyl)-2-(((5-(tert-butyl)-6-chloro-1H-indazol-3-yl)amino)methyl)-4-chloro-1-(1-isopropylpyrrolidin-3-yl)-N-methyl-1H-imidazole-5-carboxamide]: the concentration for half-maximal inhibition (IC50) was found to be 35.3 µM.
Take `CC[C@@H]1CNC[C@@H]1N(C)C(=O)c1c(Cl)nc(CNc2n[nH]c3cc(Cl)c(C(C)(C)C)cc23)n1C` [Example 9, 2-(((5-(tert-butyl)-6-chloro-1H-indazol-3-yl)amino)methyl)-4-chloro-N-((3R,4R)-4-ethylpyrrolidin-3-yl)-N,1-dimethyl-1H-imidazole-5-carboxamide]: the half-maximal inhibitory concentration (IC50) worked out at 33.5 µM.
Next, `CN(C(=O)c1c(Cl)nc(CNc2n[nH]c3cc(Cl)c(C(C)(C)C)cc23)n1C)[C@@H]1CNCC12CC2` [Example 10, (S)-2-(((5-(tert-butyl)-6-chloro-1H-indazol-3-yl)amino)methyl)-4-chloro-N,1-dimethyl-N-(5-azaspiro[2.4]heptan-7-yl)-1H-imidazole-5-carboxamide]: 46.9 µM.
Next, `CN[C@H]1C[C@@H]1N(C)C(=O)c1c(Cl)nc(CNc2n[nH]c3cc(Cl)c(C(C)(C)C)cc23)n1C` [Example 12, 2-(((5-(tert-butyl)-6-chloro-1H-indazol-3-yl)amino)methyl)-4-chloro-N,1-dimethyl-N-((1S,2S)-2-(methylamino)cyclopropyl)-1H-imidazole-5-carboxamide]: 38.2 µM; `CN(C(=O)c1c(Cl)nc(CNc2cc(C(C)(C)C)c(Cl)cc2O)n1C)[C@@H]1CCNC1` [Example 15, (R)-2-(((5-(tert-butyl)-4-chloro-2-hydroxyphenyl)amino)methyl)-4-chloro-N,1-dimethyl-N-(pyrrolidin-3-yl)-1H-imidazole-5-carboxamide]: 32.9 µM.
To `CN(C(=O)c1c(Cl)nc(CNc2cc(C(C)(C)C)c(Cl)cc2O)n1C)[C@H]1CCNC1` [Example 16, (S)-2-(((5-(tert-butyl)-4-chloro-2-hydroxyphenyl)amino)methyl)-4-chloro-N,1-dimethyl-N-(pyrrolidin-3-yl)-1H-imidazole-5-carboxamide] belongs 26.2 µM; to `CN(C(=O)c1c(Cl)nc(CNc2cc(C(C)(C)C)c(Cl)cc2O)n1C)C1CNC1` [Example 17, N-(azetidin-3-yl)-2-(((5-(tert-butyl)-4-chloro-2-hydroxyphenyl)amino)methyl)-4-chloro-N,1-dimethyl-1H-imidazole-5-carboxamide], 12 µM; to `CC(C)N1CC[C@@H](n2c(CNc3cc(C(C)(C)C)c(Cl)cc3O)nc(Cl)c2C(=O)N(C)[C@@H]2CCNC2)C1` [Example 18, 2-(((5-(tert-butyl)-4-chloro-2-hydroxyphenyl)amino)methyl)-4-chloro-1-((R)-1-isopropylpyrrolidin-3-yl)-N-methyl-N-((R)-pyrrolidin-3-yl)-1H-imidazole-5-carboxamide], 1.6 µM.
For the compound `CC(C)N1CC[C@@H](n2c(CNc3cc(C(C)(C)C)c(Cl)cc3O)nc(Cl)c2C(=O)N(C)[C@H]2CCNC2)C1` [Example 19, 2-(((5-(tert-butyl)-4-chloro-2-hydroxyphenyl)amino)methyl)-4-chloro-1-((R)-1-isopropylpyrrolidin-3-yl)-N-methyl-N-((S)-pyrrolidin-3-yl)-1H-imidazole-5-carboxamide], the IC50 is 3.7 µM.
For `CC(C)N1CC[C@@H](n2c(CNc3cc(C(C)(C)C)c(Cl)cc3O)nc(Cl)c2C(=O)N(C)C2CNC2)C1` [Example 20, (R)-N-(azetidin-3-yl)-2-(((5-(tert-butyl)-4-chloro-2-hydroxyphenyl)amino)methyl)-4-chloro-1-(1-isopropylpyrrolidin-3-yl)-N-methyl-1H-imidazole-5-carboxamide], the 50% inhibitory concentration (IC50) is 3.2 µM.
For the compound `CN(C(=O)c1c(Cl)nc(CNc2n[nH]c3cc(Cl)c(C(C)(C)C)cc23)n1C)C1CCNC1` (stereo not drawn) [Example 21, 2-(((5-(tert-butyl)-6-chloro-1H-indazol-3-yl)amino)methyl)-4-chloro-N,1-dimethyl-N-(pyrrolidin-3-yl)-1H-imidazole-5-carboxamide], the IC50 is 31.5 µM.
